Assay results: publication PMC9878345 (Frontiers in Chemistry, 2023)
Where “and” joins values, the source holds several entries; their conditions need not be identical. Equal entries are not always repeated. Where two headings read alike, the source gives them in different places.

Legend:
SARS-CoV-2 PLpro [1] = molecular target: T1, SARS-CoV-2 PLpro (Severe acute respiratory syndrome coronavirus 2, UniProt P0DTD1); test: biochemical; assay type: biochemical; details: for inhibition at 50 µM / inhibition at 100 µM / inhibition at 200 µM: read-out: inhibition of PLpro proteolytic activity; for inhibition activity in SARS-CoV-2 PLpro enzymatic activity: concentration not stated; for inhibitory activity towards PLpro proteolytic activity (in words): at the tested concentrations (50, 100, 200 μM); for IC50 / IC50, PLpro proteolytic activity (Figure 5) / IC50 towards PLpro proteolytic activity: dose-dependent study; for IC50 / IC50 towards PLpro proteolytic activity: 0–100 µM, non-linear regression
SARS-CoV-2 PLpro [2] = molecular target: T1, SARS-CoV-2 PLpro; test: biochemical
Vero-E6 cells = test: Cell viability assay (PrestoBlue); assay type: cell-based, African green monkey; details: for cytotoxicity (in words): 24, 48, 72 h at 50, 100, 200 µM; for cytotoxicity: at the tested doses and time points
Method: The cytotoxic effect of selected phytochemicals were carried out with Vero-E6 cells using PrestoBlue™ Cell Viability kit as described earlier ([Lewis et al., 2022]). Briefly, Vero-E6 cells (20,000 cells) were seeded overnight in 96 well plates. Then, 100 µL of complete media (EMEM+10% FBS+1%Pen/Strep) was added to refresh the cells along with 50, 100, and 200 µM selected phytochemicals, and incubation was continued for 24, 48, and 72 hs at 37°C respectively. Cytotoxicity detection regent (PrestoBlue solution) was added and incubated for additional 1h at 37°C. The absorbance was taken at 530/25 excitation and 590/35 nm emission using Bio-Tek Synergy HT fluorescent plate reader.

[3] = read-out: IC50 towards PLpro proteolytic activity
[4] = read-out: inhibition of PLpro DUB activity

In the case of `O=C(O[C@@H]1Cc2c(O)cc(O)cc2O[C@@H]1c1cc(O)c(O)c(O)c1)c1cc(O)c(O)c(O)c1` [EGCG, epigallocatechin gallate], the inhibition at 50 µM (SARS-CoV-2 PLpro [1]; 50 μM, vs DMSO control) is reported as 65%, the inhibition at 100 µM (SARS-CoV-2 PLpro [1]; 100 μM, vs DMSO control) is reported as 81% and the inhibition at 200 µM (SARS-CoV-2 PLpro [1]; 200 μM, vs DMSO control) is reported as 97%. The “inhibition activity in SARS-CoV-2 PLpro enzymatic activity” value (SARS-CoV-2 PLpro [1]) was “more than 50%”, the inhibition at 50 µM (SARS-CoV-2 PLpro [2]; 50 μM, vs DMSO control, read-out: inhibition of PLpro DUB activity) was 70% and the inhibition at 100 µM (SARS-CoV-2 PLpro [2]; 100 μM, vs DMSO control, read-out: inhibition of PLpro DUB activity) was 90%. The inhibition at 200 µM (SARS-CoV-2 PLpro [2]; 200 μM, vs DMSO control, read-out: inhibition of PLpro DUB activity) was 95% and the “cytotoxicity (in words)” value (Vero-E6 cells) was “not c ytotoxic”.

With `C[C@@H]1CC[C@H]2[C@@H](C)C(=O)O[C@@H]3O[C@@]4(C)CC[C@@H]1[C@]32OO4` [artemisinin, reference compound] the “inhibitory activity towards PLpro proteolytic activity (in words)” value (SARS-CoV-2 PLpro [1]) was “did not show inhibitory activity”.

In the case of `C=C(C)[C@@H]1CC[C@]2(C(=O)O)CC[C@]3(C)[C@H](CC[C@@H]4[C@@]5(C)CC[C@H](O)C(C)(C)[C@@H]5CC[C@]43C)[C@@H]12` [betulinic acid], the “inhibitory activity towards PLpro proteolytic activity (in words)” value (SARS-CoV-2 PLpro [1]) is reported as “did not show inhibitory activity”.

In the case of `O.Oc1cc(O)c2c(c1)O[C@H](c1ccc(O)c(O)c1)[C@@H](O)C2` [catechin], the “inhibition of PLpro proteolytic activity” value (SARS-CoV-2 PLpro [1]; 50 μM, vs DMSO control) is reported as 25%, the “inhibition of PLpro proteolytic activity” value (SARS-CoV-2 PLpro [1]; 100 μM, vs DMSO control) is reported as 44% and the “inhibition of PLpro proteolytic activity” value (SARS-CoV-2 PLpro [1]; 200 μM, vs DMSO control) is reported as 64%. For the same compound, the IC50 (SARS-CoV-2 PLpro [1]; [3]) was 14.2 µM, the “inhibition of PLpro DUB activity” value (SARS-CoV-2 PLpro [2]; 50 μM, vs DMSO control) was 30% and the “inhibition of PLpro DUB activity” value (SARS-CoV-2 PLpro [2]; 100 μM, vs DMSO control) was 40%. For the same compound, the “inhibition of PLpro DUB activity” value (SARS-CoV-2 PLpro [2]; 200 μM, vs DMSO control) was 50%.

With `CN1Cc2c(ccc3c2OCO3)[C@@H]2[C@H]1c1cc3c(cc1C[C@@H]2O)OCO3` [chelidonine] the “inhibitory activity towards PLpro proteolytic activity (in words)” value (SARS-CoV-2 PLpro [1]) was “only colchicine out of all the tested alkaloids”.

With `O=c1c(-c2ccc(O)cc2)coc2cc(O)ccc12` [daidzein] the “inhibitory activity towards PLpro proteolytic activity (in words)” value (SARS-CoV-2 PLpro [1]) was “none of the tested isoflavone compounds such as daidzein, daidzin, genistein, genistin, and isoflorentin demonstrated an inhibitory effect”.

`O=c1c(-c2ccc(O)cc2)coc2cc(O[C@@H]3O[C@H](CO)[C@@H](O)[C@H](O)[C@H]3O)ccc12` [daidzin] was tested, and the “inhibitory activity towards PLpro proteolytic activity (in words)” value (SARS-CoV-2 PLpro [1]) was “none of the tested isoflavone compounds such as daidzein, daidzin, genistein, genistin, and isoflorentin demonstrated an inhibitory effect”.

With `C=CCSSCC=C` [diallyl disulfide] the “inhibitory activity towards PLpro proteolytic activity (in words)” value (SARS-CoV-2 PLpro [1]) was “did not show inhibitory activity”.

With `C=CCSSSCC=C` [diallyl trisulfide] the “inhibitory activity towards PLpro proteolytic activity (in words)” value (SARS-CoV-2 PLpro [1]) was “did not show inhibitory activity”.

For `O=c1c(-c2ccc(O)cc2)coc2cc(O)cc(O)c12` [genistein], the “inhibitory activity towards PLpro proteolytic activity (in words)” value (SARS-CoV-2 PLpro [1]) was “none of the tested isoflavone compounds such as daidzein, daidzin, genistein, genistin, and isoflorentin demonstrated an inhibitory effect”.

For `O=c1c(-c2ccc(O)cc2)coc2cc(O[C@@H]3O[C@H](CO)[C@@H](O)[C@H](O)[C@H]3O)cc(O)c12` [genistin], the “inhibitory activity towards PLpro proteolytic activity (in words)” value (SARS-CoV-2 PLpro [1]) was “none of the tested isoflavone compounds such as daidzein, daidzin, genistein, genistin, and isoflorentin demonstrated an inhibitory effect”.

`CC1(C)[C@@H](O[C@H]2O[C@H](C(=O)O)[C@@H](O)[C@H](O)[C@H]2O[C@@H]2O[C@H](C(=O)O)[C@@H](O)[C@H](O)[C@H]2O)CC[C@]2(C)[C@H]3C(=O)C=C4[C@@H]5C[C@@](C)(C(=O)O)CC[C@]5(C)CC[C@@]4(C)[C@]3(C)CC[C@@H]12` [glycyrrhizic acid] was tested, and the “inhibitory activity towards PLpro proteolytic activity (in words)” value (SARS-CoV-2 PLpro [1]) was “did not show inhibitory activity”.

In the case of `COc1cc(-c2coc3cc4c(c(OC)c3c2=O)OCO4)cc(OC)c1OC` [isoflorentin], the “inhibitory activity towards PLpro proteolytic activity (in words)” value (SARS-CoV-2 PLpro [1]) is reported as “none of the tested isoflavone compounds such as daidzein, daidzin, genistein, genistin, and isoflorentin demonstrated an inhibitory effect”.

In the case of `O[C@H]1[C@H]2c3cc4c(cc3CN3CCC(=C[C@@H]1O)[C@H]23)OCO4` [lycorine], the “inhibitory activity towards PLpro proteolytic activity (in words)” value (SARS-CoV-2 PLpro [1]) is reported as “only colchicine out of all the tested alkaloids”.

With `O=c1c2cc(O)c(O)cc2oc2cc(O)c([C@@H]3O[C@H](CO)[C@@H](O)[C@H](O)[C@H]3O)c(O)c12` [mangiferin, 2-β-D-glucopyranosyl-1,3,6,7-tetrahydroxy-9H-xanthan-9-one] the IC50 (SARS-CoV-2 PLpro [1]; IC50 towards PLpro proteolytic activity) was 95.3 µM and 43.4 µM, the “inhibition of PLpro proteolytic activity” value (SARS-CoV-2 PLpro [1]; concentration not given) was 70% and the inhibition at 200 µM (SARS-CoV-2 PLpro [1]) was greater than 50%. The IC50 (SARS-CoV-2 PLpro [2]) was 104 µM, the inhibition at 200 µM (SARS-CoV-2 PLpro [2]; [4]) was 10 to 30% and the “cytotoxicity (in words)” value (Vero-E6 cells) was “not c ytotoxic”.

In the case of `O=c1c(O)c(-c2cc(O)c(O)c(O)c2)oc2cc(O)cc(O)c12` [myricetin, 3,5,7, 3′, 4′, 5′-hexahydroxyflavone], the cytotoxicity (Vero-E6 cells) is reported as 20-30%.

With `CC1(C)OC(=O)C=C[C@]2(C)[C@H]3CC[C@@]4(C)[C@H](c5ccoc5)OC(=O)[C@H]5O[C@]54[C@]3(C)C(=O)C[C@@H]12` [obacunone] the “inhibitory activity towards PLpro proteolytic activity (in words)” value (SARS-CoV-2 PLpro [1]) was “did not show inhibitory activity”.

In the case of `C/C=C1/[C@H](O[C@@H]2O[C@H](CO)[C@@H](O)[C@H](O)[C@H]2O)OC=C(C(=O)OC)[C@H]1CC(=O)OCCc1ccc(O)c(O)c1` [oleuropein], the “IC50, PLpro proteolytic activity (Figure 5)” value (SARS-CoV-2 PLpro [1]) is reported as “Ambiguous”, the “IC50 towards PLpro proteolytic activity” value (SARS-CoV-2 PLpro [1]) is reported as “ambiguous” and the inhibition at 200 µM (SARS-CoV-2 PLpro [1]) is reported as 60%. For the same compound, the IC50 (SARS-CoV-2 PLpro [2]) was 132 µM, the inhibition at 200 µM (SARS-CoV-2 PLpro [2]; [4]) was 50% and the cytotoxicity (Vero-E6 cells) was 20-30%.

Compound `O=C(/C=C/c1ccc(O)c(O)c1)O[C@H](Cc1ccc(O)c(O)c1)C(=O)O` [rosmarinic acid] has an inhibition at 200 µM (SARS-CoV-2 PLpro [1]) of 50%.

In the case of `C[C@@H]1O[C@@H](OC[C@H]2O[C@@H](Oc3c(-c4ccc(O)c(O)c4)oc4cc(O)cc(O)c4c3=O)[C@H](O)[C@@H](O)[C@@H]2O)[C@H](O)[C@H](O)[C@H]1O` [rutin], the inhibition at 50 µM (SARS-CoV-2 PLpro [1]) is reported as 70%, the inhibition at 100 µM (SARS-CoV-2 PLpro [1]) is reported as 70% and the inhibition at 200 µM (SARS-CoV-2 PLpro [1]) is reported as 88%. For the same compound, the “cytotoxicity (in words)” value (Vero-E6 cells) was “not c ytotoxic”.

For `O=C1C=CC[C@@H]2[C@H]3CCCN4CCC[C@@H](CN12)[C@@H]34` [sophocarpine], the “inhibitory activity towards PLpro proteolytic activity (in words)” value (SARS-CoV-2 PLpro [1]) was “only colchicine out of all the tested alkaloids”.

In the case of `COc1ccc2cc1Oc1ccc(cc1)C[C@H]1c3cc(c(OC)cc3CCN1C)Oc1c(OC)c(OC)cc3c1[C@H](C2)N(C)CC3` [tetrandrine], the “inhibitory activity towards PLpro proteolytic activity (in words)” value (SARS-CoV-2 PLpro [1]) is reported as “only colchicine out of all the tested alkaloids”.

For `O=c1c(O)cc([C@H]2Oc3cc(O)cc(O)c3C[C@H]2O)cc2c([C@H]3Oc4cc(O)cc(O)c4C[C@H]3O)cc(O)c(O)c12` [theaflavin], the inhibition at 50 µM (SARS-CoV-2 PLpro [1]; 50 μM, vs DMSO control) was 94%, the inhibition at 200 µM (SARS-CoV-2 PLpro [1]; 200 μM, vs DMSO control) was 100% and the “inhibition activity in SARS-CoV-2 PLpro enzymatic activity” value (SARS-CoV-2 PLpro [1]) was “more than 50%”. For the same compound, the IC50 (SARS-CoV-2 PLpro [1]; [3]) was 7.3 µM, the “inhibition of PLpro DUB activity” value (SARS-CoV-2 PLpro [2]; 50 μM, vs DMSO control) was “complete inhibition” and the IC50 (SARS-CoV-2 PLpro [2]; dose-dependent study, 0–100 µM, non-linear regression, read-out: IC50 for PLpro DUB activity) was 13.2 µM. It also gave an IC50 (SARS-CoV-2 PLpro [2]; dose-dependent study, read-out: IC50, PLpro DUB activity (Figure 6)) of 13.2 µM.

For `COc1cc2oc3cc(O)c(OC)c(CC=C(C)C)c3c(=O)c2c(O)c1CC=C(C)C` [β-mangostin, b-Mangostin], the “inhibitory activity towards PLpro proteolytic activity (in words)” value (SARS-CoV-2 PLpro [1]) was “Only γ-mangostin and mangiferin exhibited more than 50% inhibitory activity”.

With `CC(C)=CCc1c(O)cc2oc3cc(O)c(O)c(CC=C(C)C)c3c(=O)c2c1O` [γ-mangostin] the “IC50, PLpro proteolytic activity (Figure 5)” value (SARS-CoV-2 PLpro [1]) was “Ambiguous” and the “IC50 towards PLpro proteolytic activity” value (SARS-CoV-2 PLpro [1]) was “ambiguous”.

evodiamine was tested, and the “inhibitory activity towards PLpro proteolytic activity (in words)” value (SARS-CoV-2 PLpro [1]) was “only colchicine out of all the tested alkaloids”.
